Here are results for 20 molecules from US20240050428A1 (Cullgen (Shanghai), Inc., priority 2020, published 2024).

pIC50: −log10 of the molar value. Read-outs that look alike come from different tables or passages of the source. Where only a bound is given, the exact number is not on record here.

For one experiment, the system named is MV4;11 cells. Briefly: Cell viability assay (CellTiter-Glo) in MV4;11 cells, alone or with gilteritinib. In kind it is cell-based. The settings on record: Homo sapiens, MV4;11 cells, three days, CellTiter-Glo, read-out: MV4. On the technique in general: ATP-based viability assays read luminescence as a measure of living cells.
The next experiment relates to MOLM-13 cells. Briefly: Cell viability assay (CellTiter-Glo) in MOLM-13 cells, alone or with gilteritinib. It counts as cell-based. The settings on record: Homo sapiens, MOLM-13 cells, three days, CellTiter-Glo.
[1] abbreviates: MV4-11, 72 h, compound alone (without gilteritinib), 11 IC50.
Where [2] appears, read: MV4-11, 72 h, compound with gilteritinib 10 nM, 11 IC50 gilteritinib.
[3] abbreviates: MOLM-13, 72 h, compound alone (without gilteritinib), read-out: MOLM-13 IC50.
Where [4] appears, read: MOLM-13, 72 h, compound with gilteritinib 20 nM, read-out: MOLM-13 IC50 gilteritinib.

For the molecule `O=C1CCC(N2C(=O)c3ccc(NCCCCCCn4cc(-c5cnc6cccc(C(F)(F)F)c6n5)cn4)cc3C2=O)C(=O)N1` (centres unmarked) [GS-555, 2-(2,6-Dioxopiperidin-3-yl)-5-((6-(4-(8-(trifluoromethyl)quinoxalin-2-yl)-1H-pyrazol-1-yl)hexyl)amino)isoindoline-1,3-dione], the pIC50 with MV4;11 cells (setting [1]) is 6.00 to 7.00; in the experiment on MV4;11 cells (setting [2]) it was 7.00 to 8.00; in the experiment on MOLM-13 cells (setting [3]), 6.00 to 7.00; in the experiment with MOLM-13 cells (setting [4]), over 8.00.

For the molecule `O=C1CCC(N2C(=O)c3ccc(NC4CC(CCCn5cc(-c6cnc7ccccc7n6)cn5)C4)cc3C2=O)C(=O)N1` (centres unmarked) [GS-556], the pIC50 with MV4;11 cells (setting [1]), in the experiment on MV4;11 cells (setting [2]), in the experiment with MOLM-13 cells (setting [3]) and in the experiment on MOLM-13 cells (setting [4]) was under 6.00 throughout.

As for `O=C1CCC(N2C(=O)c3ccc(NCCCCCCn4ncc(-c5cnc6ccccc6n5)c4C(F)F)cc3C2=O)C(=O)N1` (centres unmarked) [GS-557, 5-((6-(5-(Difluoromethyl)-4-(quinoxalin-2-yl)-1H-pyrazol-1-yl)hexyl)amino)-2-(2,6-dioxopiperidin-3-yl)isoindoline-1,3-dione], the pIC50 in the experiment on MV4;11 cells (setting [1]) is 7.00 to 8.00; with MV4;11 cells (setting [2]), over 8.00; in the experiment on MOLM-13 cells (setting [3]) it was 7.00 to 8.00; in the experiment with MOLM-13 cells (setting [4]), over 8.00.

For `O=C1CCC(N2C(=O)c3ccc(NCCC4CC(Cn5cc(-c6cnc7ccccc7n6)cn5)C4)cc3C2=O)C(=O)N1` (centres unmarked) [GS-558, 2-(2,6-Dioxopiperidin-3-yl)-5-((2-(3-((4-(quinoxalin-2-yl)-1H-pyrazol-1-yl)methyl)cyclobutyl)ethyl)amino)isoindoline-1,3-dione], the pIC50 with MV4;11 cells (72 h, compound alone (without gilteritinib), 11 IC50) is 6.00 to 7.00; in the experiment with MV4;11 cells (72 h, compound with gilteritinib 10 nM, 11 IC50 gilteritinib), 6.00 to 7.00; in the experiment on MOLM-13 cells (72 h, compound alone (without gilteritinib), read-out: MOLM-13 IC50), under 6.00; in the experiment on MOLM-13 cells (72 h, compound with gilteritinib 20 nM, read-out: MOLM-13 IC50 gilteritinib), 7.00 to 8.00.

Regarding `O=C1CCC(N2C(=O)c3ccc(NCCCCCCn4cc(-c5cnc6ccc(C(F)(F)F)cc6n5)cn4)cc3C2=O)C(=O)N1` (centres unmarked) [GS-559], the pIC50 was 7.00 to 8.00 with MV4;11 cells (setting [1]), 7.00 to 8.00 with MV4;11 cells (setting [2]), 7.00 to 8.00 in the experiment with MOLM-13 cells (setting [3]) and over 8.00 in the experiment on MOLM-13 cells (setting [4]).

For the molecule `O=C1CCC(N2C(=O)c3ccc(NCCC4CC(n5cc(-c6cnc7ccccc7n6)cn5)C4)cc3C2=O)C(=O)N1` (centres unmarked) [GS-561, 2-(2,6-Dioxopiperidin-3-yl)-5-((2-(3-(4-(quinoxalin-2-yl)-1H-pyrazol-1-yl)cyclobutyl)ethyl)amino)isoindoline-1,3-dione], the pIC50 in the experiment with MV4;11 cells (setting [1]) was under 6.00; in the experiment on MV4;11 cells (setting [2]) it was 6.00 to 7.00; in the experiment with MOLM-13 cells (setting [3]), under 6.00; in the experiment on MOLM-13 cells (setting [4]) it was 7.00 to 8.00.

Regarding `O=C1CCC(N2C(=O)c3ccc(NCCCCCCn4cc(-c5cnc6ccc(C7CC7)cc6n5)cn4)cc3C2=O)C(=O)N1` (centres unmarked) [GS-562, 5-((6-(4-(7-Cyclopropylquinoxalin-2-yl)-1H-pyrazol-1-yl)hexyl)amino)-2-(2,6-dioxopiperidin-3-yl)isoindoline-1,3-dione], the pIC50 in the experiment on MV4;11 cells (setting [1]) was 7.00 to 8.00; in the experiment on MV4;11 cells (setting [2]) it was 7.00 to 8.00; in the experiment with MOLM-13 cells (setting [3]), 7.00 to 8.00; in the experiment with MOLM-13 cells (setting [4]), over 8.00.

Turning to `O=C1CCC(N2C(=O)c3ccc(NCCC4CC5(C4)CC(n4cc(-c6cnc7ccccc7n6)cn4)C5)cc3C2=O)C(=O)N1` (centres unmarked) [GS-564, 2-(2,6-Dioxopiperidin-3-yl)-5-((2-(6-(4-(quinoxalin-2-yl)-1H-pyrazol-1-yl)spiro[3.3]heptan-2-yl)ethyl)amino)isoindoline-1,3-dione], the pIC50 with MV4;11 cells (setting [1]) was 7.00 to 8.00; in the experiment with MV4;11 cells (setting [2]), over 8.00; in the experiment with MOLM-13 cells (setting [3]) it was 7.00 to 8.00; with MOLM-13 cells (setting [4]), over 8.00.

Turning to `O=C1CCC(N2C(=O)c3cccc(NCCCC4CC(n5cc(-c6cnc7ccccc7n6)cn5)C4)c3C2=O)C(=O)N1` (centres unmarked) [GS-565, 2-(2,6-Dioxopiperidin-3-yl)-4-((3-(3-(4-(quinoxalin-2-yl)-1-pyrazol-1-yl)cyclobutyl)propyl)amino)isoindoline-1,3-dione], the pIC50 with MV4;11 cells (setting [1]) is under 6.00; with MV4;11 cells (setting [2]), 6.00 to 7.00; with MOLM-13 cells (setting [3]), under 6.00; with MOLM-13 cells (setting [4]), 7.00 to 8.00.

As to `O=C1CCC(N2C(=O)c3ccc(NCCCC4CC(n5cc(-c6cnc7ccc(CC8CNC8)cc7n6)cn5)C4)cc3C2=O)C(=O)N1` (centres unmarked) [GS-566, 5-((3-(3-(4-(7-(Azetidin-3-ylmethyl)quinoxalin-2-yl)-1H-pyrazol-1-yl)cyclobutyl)propyl)amino)-2-(2,6-dioxopiperidin-3-yl)isoindoline-1,3-dione], the pIC50 in the experiment with MV4;11 cells (setting [1]) was under 6.00; in the experiment on MV4;11 cells (setting [2]), 6.00 to 7.00; in the experiment with MOLM-13 cells (setting [3]), under 6.00; in the experiment on MOLM-13 cells (setting [4]), 6.00 to 7.00.

For `O=C1CCC(N2C(=O)c3ccc(NCCCC4CC(n5cc(-c6cnc7ccc(NC8COC8)cc7n6)cn5)C4)cc3C2=O)C(=O)N1` (centres unmarked) [GS-567, 2-(2,6-Dioxopiperidin-3-yl)-5-((3-(3-(4-(7-(oxetan-3-ylamino)quinoxalin-2-yl)-1H-pyrazol-1-yl)cyclobutyl)propyl)amino)isoindoline-1,3-dione], the pIC50 with MV4;11 cells (setting [1]) is 6.00 to 7.00; with MV4;11 cells (setting [2]) it was 7.00 to 8.00; with MOLM-13 cells (setting [3]) it was 6.00 to 7.00; in the experiment with MOLM-13 cells (setting [4]) it was over 8.00.

For `O=C1CCC(N2C(=O)c3ccc(NCCC[C@H]4C[C@H](n5cc(-c6cnc7ccccc7n6)c(C6CC6)n5)C4)cc3C2=O)C(=O)N1` (stereo partly drawn) [GS-568, 5-((3-((trans)-3-(3-Cyclopropyl-4-(quinoxalin-2-yl)-1H-pyrazol-1-yl)cyclobutyl)propyl)amino)-2-(2,6-dioxopiperidin-3-yl)isoindoline-1,3-dione], the pIC50 is 7.00 to 8.00 with MV4;11 cells (setting [1]), over 8.00 in the experiment with MV4;11 cells (setting [2]), 7.00 to 8.00 in the experiment on MOLM-13 cells (setting [3]) and over 8.00 with MOLM-13 cells (setting [4]).

On to `O=C1CCC(N2C(=O)c3ccc(NCCCCCCn4cc(-c5cnc6ccc(N7CCOCC7)cc6n5)c(C5CC5)n4)cc3C2=O)C(=O)N1` (centres unmarked) [GS-569, 5-((6-(3-Cyclopropyl-4-(7-morpholinoquinoxalin-2-yl)-1H-pyrazol-1-yl)hexyl)amino)-2-(2,6-dioxopiperidin-3-yl)isoindoline-1,3-dione], for which the pIC50 with MV4;11 cells (setting [1]), in the experiment with MV4;11 cells (setting [2]), with MOLM-13 cells (setting [3]) and in the experiment on MOLM-13 cells (setting [4]) was over 8.00 in each case.

Take `CN1CCN(c2ccc3ncc(-c4cn(CCCCCCNc5ccc6c(c5)C(=O)N(C5CCC(=O)NC5=O)C6=O)nc4C4CC4)nc3c2)CC1` (centres unmarked) [GS-570, 5-((6-(3-Cyclopropyl-4-(7-(4-methylpiperazin-1-yl)quinoxalin-2-yl)-1H-pyrazol-1-yl)hexyl)amino)-2-(2,6-dioxopiperidin-3-yl)isoindoline-1,3-dione]: the pIC50 was 7.00 to 8.00 in the experiment on MV4;11 cells (setting [1]), over 8.00 in the experiment on MV4;11 cells (setting [2]), 6.00 to 7.00 in the experiment with MOLM-13 cells (setting [3]) and over 8.00 with MOLM-13 cells (setting [4]).

Regarding `O=C1CCC(N2C(=O)c3ccc(NCCCCCCn4cc(-c5cnc6ccc(C7CCOCC7)cc6n5)c(C5CC5)n4)cc3C2=O)C(=O)N1` (centres unmarked) [GS-571, 5-((6-(3-Cyclopropyl-4-(7-(tetrahydro-2H-pyran-4-yl)quinoxalin-2-yl)-1H-pyrazol-1-yl)hexyl)amino)-2-(2,6-dioxopiperidin-3-yl)isoindoline-1,3-dione], the pIC50 with MV4;11 cells (setting [1]) is over 8.00; with MV4;11 cells (setting [2]), over 8.00; in the experiment with MOLM-13 cells (setting [3]), 7.00 to 8.00; with MOLM-13 cells (setting [4]) it was over 8.00.

For `CN1CCC(c2ccc3ncc(-c4cn(CCCCCCNc5ccc6c(c5)C(=O)N(C5CCC(=O)NC5=O)C6=O)nc4C4CC4)nc3c2)CC1` (centres unmarked) [GS-572, 5-((6-(3-Cyclopropyl-4-(7-(1-methylpiperidin-4-yl)quinoxalin-2-yl)-1H-pyrazol-1-yl)hexyl)amino)-2-(2,6-dioxopiperidin-3-yl)isoindoline-1,3-dione], the pIC50 with MV4;11 cells (setting [1]) was 7.00 to 8.00; in the experiment on MV4;11 cells (setting [2]), over 8.00; in the experiment with MOLM-13 cells (setting [3]), 6.00 to 7.00; with MOLM-13 cells (setting [4]), over 8.00.

For the molecule `C[C@H]1CN(c2ccc3ncc(-c4cnn([C@H]5C[C@H](CCCNc6ccc7c(c6)C(=O)N(C6CCC(=O)NC6=O)C7=O)C5)c4)nc3c2)CCN1C` (stereo partly drawn) [GS-575, 5-((3-(trans-3-(4-(7-((S)-3,4-Dimethylpiperazin-1-yl)quinoxalin-2-yl)-1H-pyrazol-1-yl)cyclobutyl)propyl)amino)-2-(2,6-dioxopiperidin-3-yl)isoindoline-1,3-dione], the pIC50 with MV4;11 cells (setting [1]) is 7.00 to 8.00; in the experiment on MV4;11 cells (setting [2]) it was over 8.00; with MOLM-13 cells (setting [3]), 7.00 to 8.00; in the experiment on MOLM-13 cells (setting [4]), over 8.00.

As for `C[C@H]1CN(c2ccc3ncc(-c4cnn([C@H]5C[C@H](CCCNc6ccc7c(c6)C(=O)N(C6CCC(=O)NC6=O)C7=O)C5)c4)nc3c2)CCN1` (stereo partly drawn) [GS-576, 2-(2,6-Dioxopiperidin-3-yl)-5-((3-(trans-3-(4-(7-((S)-3-methylpiperazin-1-yl)quinoxalin-2-yl)-1H-pyrazol-1-yl)cyclobutyl)propyl)amino)isoindoline-1,3-dione], the pIC50 with MV4;11 cells (setting [1]) is 7.00 to 8.00; in the experiment with MV4;11 cells (setting [2]), over 8.00; in the experiment on MOLM-13 cells (setting [3]), 7.00 to 8.00; in the experiment on MOLM-13 cells (setting [4]), over 8.00.

As to `O=C1CCC(N2C(=O)c3ccc(NC[C@H]4C[C@H](n5cc(-c6ccccn6)cn5)C4)cc3C2=O)C(=O)N1` (stereo partly drawn) [GS-577, 2-(2,6-Dioxopiperidin-3-yl)-5-(((trans-3-(4-(pyridin-2-yl)-1H-pyrazol-1-yl)cyclobutyl)methyl)amino)isoindoline-1,3-dione], the pIC50 in the experiment with MV4;11 cells (setting [1]) is under 6.00; with MV4;11 cells (setting [2]), under 6.00; in the experiment on MOLM-13 cells (setting [3]), 6.00 to 7.00; in the experiment with MOLM-13 cells (setting [4]), 6.00 to 7.00.

For the molecule `Cc1cccc(-c2cnn([C@H]3C[C@H](CNc4ccc5c(c4)C(=O)N(C4CCC(=O)NC4=O)C5=O)C3)c2)n1` (stereo partly drawn) [GS-578, 2-(2,6-Dioxopiperidin-3-yl)-5-(((trans-3-(4-(6-methylpyridin-2-yl)-1H-pyrazol-1-yl)cyclobutyl)methyl)amino)isoindoline-1,3-dione], the pIC50 was under 6.00 in the experiment with MV4;11 cells (setting [1]), 6.00 to 7.00 with MV4;11 cells (setting [2]), under 6.00 with MOLM-13 cells (setting [3]) and 6.00 to 7.00 in the experiment with MOLM-13 cells (setting [4]).
